Experiments:
Pharmacokinetics in rats = assay type: in vivo
ob/ob mice = experiment: Fasting blood glucose of ob/ob mice, chronic administration; assay type: in vivo
db/db mice = experiment: Fasting blood glucose of gene-deficient db/db mice, chronic administration; assay type: in vivo
normal ICR mice = experiment: Oral glucose tolerance in normal ICR mice; assay type: in vivo
DPP IV [1] = target: T1, DPP IV (Rattus norvegicus, UniProt P14740); experiment: Inhibition of DPP IV activity in normal rat plasma; assay type: in vivo
T1 construct: from tissue; host or cells: normal rat plasma
T1 sequence (P14740 37-767 limits assumed): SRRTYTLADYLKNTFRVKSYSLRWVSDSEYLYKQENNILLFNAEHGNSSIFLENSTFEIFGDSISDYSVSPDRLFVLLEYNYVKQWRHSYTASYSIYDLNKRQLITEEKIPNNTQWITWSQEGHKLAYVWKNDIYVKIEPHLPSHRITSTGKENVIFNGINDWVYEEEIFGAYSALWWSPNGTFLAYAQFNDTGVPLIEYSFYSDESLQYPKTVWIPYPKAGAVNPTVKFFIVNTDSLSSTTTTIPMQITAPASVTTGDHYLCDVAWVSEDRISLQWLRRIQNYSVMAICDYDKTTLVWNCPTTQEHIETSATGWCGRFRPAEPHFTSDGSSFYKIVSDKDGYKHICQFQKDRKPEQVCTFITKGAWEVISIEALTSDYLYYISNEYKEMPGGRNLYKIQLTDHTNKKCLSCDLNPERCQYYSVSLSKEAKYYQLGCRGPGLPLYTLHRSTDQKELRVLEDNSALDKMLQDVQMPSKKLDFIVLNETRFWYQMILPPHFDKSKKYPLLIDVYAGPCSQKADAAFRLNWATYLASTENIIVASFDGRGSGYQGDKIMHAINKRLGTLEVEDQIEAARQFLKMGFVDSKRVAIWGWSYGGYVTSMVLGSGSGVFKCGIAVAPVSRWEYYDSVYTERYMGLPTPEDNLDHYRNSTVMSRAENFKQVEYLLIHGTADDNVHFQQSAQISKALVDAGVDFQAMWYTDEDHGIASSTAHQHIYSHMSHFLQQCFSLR

DPP IV [2] = target: T2, DPP IV (Mus musculus, UniProt P28843); experiment: Inhibition of DPP IV activity in normal mouse plasma; assay type: in vivo
T2 construct: from tissue; host or cells: normal mouse plasma
T2 sequence (P28843 37-760 limits assumed): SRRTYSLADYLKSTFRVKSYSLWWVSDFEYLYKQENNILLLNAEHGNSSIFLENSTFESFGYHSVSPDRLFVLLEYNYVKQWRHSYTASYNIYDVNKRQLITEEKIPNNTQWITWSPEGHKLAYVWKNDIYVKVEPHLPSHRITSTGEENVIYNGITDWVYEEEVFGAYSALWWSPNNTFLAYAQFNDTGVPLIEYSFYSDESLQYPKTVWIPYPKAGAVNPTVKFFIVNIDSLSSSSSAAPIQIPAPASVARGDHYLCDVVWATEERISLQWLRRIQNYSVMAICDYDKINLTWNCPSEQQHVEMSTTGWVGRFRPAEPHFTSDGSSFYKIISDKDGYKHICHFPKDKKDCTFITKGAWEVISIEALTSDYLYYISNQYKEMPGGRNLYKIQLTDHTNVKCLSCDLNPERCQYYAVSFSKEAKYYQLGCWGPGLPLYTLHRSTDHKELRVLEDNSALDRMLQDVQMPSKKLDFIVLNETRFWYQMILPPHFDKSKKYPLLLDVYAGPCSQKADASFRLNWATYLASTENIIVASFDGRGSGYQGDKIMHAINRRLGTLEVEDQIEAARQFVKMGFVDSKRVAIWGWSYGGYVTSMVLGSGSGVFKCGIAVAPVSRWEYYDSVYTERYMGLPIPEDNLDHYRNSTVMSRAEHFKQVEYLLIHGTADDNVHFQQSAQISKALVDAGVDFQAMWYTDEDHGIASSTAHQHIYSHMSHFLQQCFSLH

DPP IV [3] = target: DPP IV (Homo sapiens, UniProt P27487); experiment: DPP IV inhibitory activity and selectivity in vitro; assay type: biochemical
DPP IV (Homo sapiens, UniProt P27487), sequence (P27487 whole entry, species assumed): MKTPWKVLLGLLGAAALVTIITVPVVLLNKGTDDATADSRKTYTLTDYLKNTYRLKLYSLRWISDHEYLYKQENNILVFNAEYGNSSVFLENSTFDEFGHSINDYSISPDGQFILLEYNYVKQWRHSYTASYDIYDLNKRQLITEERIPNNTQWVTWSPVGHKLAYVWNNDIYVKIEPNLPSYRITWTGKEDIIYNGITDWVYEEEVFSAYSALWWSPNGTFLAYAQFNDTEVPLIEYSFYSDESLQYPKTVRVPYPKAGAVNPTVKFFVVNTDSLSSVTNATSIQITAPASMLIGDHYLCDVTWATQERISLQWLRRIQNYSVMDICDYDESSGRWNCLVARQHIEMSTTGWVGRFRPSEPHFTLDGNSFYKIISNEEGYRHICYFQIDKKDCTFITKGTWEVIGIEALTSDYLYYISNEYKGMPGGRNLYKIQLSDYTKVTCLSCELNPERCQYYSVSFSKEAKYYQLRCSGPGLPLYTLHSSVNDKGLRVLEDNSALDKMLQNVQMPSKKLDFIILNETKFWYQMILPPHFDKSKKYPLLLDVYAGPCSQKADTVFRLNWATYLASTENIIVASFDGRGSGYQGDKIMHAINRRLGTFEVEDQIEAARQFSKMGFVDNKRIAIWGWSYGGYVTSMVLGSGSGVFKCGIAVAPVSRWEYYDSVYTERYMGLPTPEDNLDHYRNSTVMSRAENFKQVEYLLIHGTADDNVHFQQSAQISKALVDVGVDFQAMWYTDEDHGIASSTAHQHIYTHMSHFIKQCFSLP

Pharmacokinetics in dogs = assay type: in vivo
ICR mice = experiment: Acute toxicity test of ICR mice; assay type: in vivo; conditions: 300 mg/kg administration group
[4] = Hygroscopicity analysis (DVS); assay type: physicochemical; conditions: range of conventional storage humidity, 25° C.
Description: Dynamic vapor absorption (DVS) test/water absorption test rapidly measures the increase and loss of the moisture in the sample caused by flow carrier gas with set relative humidity (RH), wherein the sample is placed on a digital microbalance with high sensitivity and high stability at a self-suspension state, and then the adsorption/desorption of water vapor is measured by measuring the increase/decrease of mass of the material, thereby determining the hygroscopicity of the sample.
In the present invention, the test parameters of the DVS are as follows: Instrument type: SMS DVS Intrinsic; Non-hydrate: 0 to 95%-0% RH; Temperature: 25° C.; Hydrate: 40 to 95%-0% RH; Temperature: 25° C.

[5] = versus sitagliptin and vildagliptin

COC(=O)c1cc2nc(N3CCC[C@@H](N)C3)n(Cc3ccccc3C#N)c(=O)c2s1 [compound of formula I, (R)-methyl-2-(3-aminopiperidin-1-yl)-3-(2-cyanobenzyl)-4-carbonyl-3,4-dihydrothiophene[3,2-d]pyrimidine-6-carboxylic acid]
AUC0-t compared with alogliptin (Pharmacokinetics in rats): superior to those of the marketed drug alogliptin
half-life compared with alogliptin (Pharmacokinetics in rats): superior to those of the marketed drug alogliptin
fasting blood glucose (ob/ob mice): effectively reduce fasting blood glucose
fasting blood glucose reduction compared with alogliptin (ob/ob mice): superior to positive control drug alogliptin
fasting blood glucose (db/db mice): reduce its fasting blood glucose
fasting blood glucose reduction compared with alogliptin (db/db mice): comparable to positive control drug alogliptin
effect on oral glucose tolerance compared with alogliptin (normal ICR mice): superior to that of alogliptin
onset dose for increase of oral glucose tolerance (normal ICR mice): 0.1 mg/kg
oral glucose tolerance (normal ICR mice; dose-dependent manner): increase oral glucose tolerance
inhibition of DPP IV activity in plasma (DPP IV [1]): effective in inhibiting DPP IV activity
plasma DPP IV inhibitory activity compared with alogliptin (DPP IV [1]): superior to the marketed drug alogliptin
inhibition of DPP IV activity in plasma (DPP IV [2]): effective in inhibiting DPP IV activity
plasma DPP IV inhibitory activity compared with alogliptin (DPP IV [2]): superior to the marketed drug alogliptin
mode of DPP IV inhibition (DPP IV [3]): selective, reversible competitive inhibitor
DPP IV inhibitory activity (DPP IV [3]; in vitro): nanomolar level
DPP IV inhibitory activity in vitro compared with marketed drugs (DPP IV [3]; [5]): superior to the marketed drugs sitagliptin and vildagliptin
DPP IV selectivity in vitro compared with marketed drugs (DPP IV [3]; [5]): superior to the marketed drugs sitagliptin and vildagliptin
AUC0-t compared with alogliptin (Pharmacokinetics in dogs): superior to those of the marketed drug alogliptin
half-life compared with alogliptin (Pharmacokinetics in dogs): superior to those of the marketed drug alogliptin
animal death in acute toxicity test (ICR mice): no animal dies

COC(=O)c1cc2nc(N3CCC[C@@H](N)C3)n(Cc3ccccc3C#N)c(=O)c2s1.O=C(O)/C=C\C(=O)O [crystal form A, (R)-methyl-2-(3-aminopiperidin-1-yl)-3-(2-cyanobenzyl)-4-carbonyl-3,4-dihydrothiophene[3,2-d]pyrimidine-6-carboxylic acid maleate]
hygroscopicity, variation range (DVS) [4]: less than 2.0%

— patent publication US10640514B2, “Polymorph of DPPIV inhibitor maleate and preparation method therefor” (SHANGHAI INSTITUTE OF MATERIA MEDICA, CHINESE ACADEMY OF …, priority 2016, dated 2020)
